Values of other authors in patent US9295653B2, “Controlled agglomeration” (Veloxis Pharmaceuticals A/S, priority 2001, dated 2016).
Where a name gives a salt, the structure may show the parent alone.

settings: Table 1, Poorly-Soluble Drug Candidates; descriptive term

**Q.** For `CC[C@H](C)C(=O)O[C@H]1C[C@@H](C)C=C2C=C[C@H](C)[C@H](CC[C@@H]3C[C@@H](O)CC(=O)O3)[C@H]21` [Lovastatin], which “Solubility In Water” value is on record?
**A.** Insoluble

**Q.** Which “Solubility In Water” value does the source give for `CN1C(C(=O)Nc2ccccn2)=C(O)c2ccccc2S1(=O)=O` [Piroxicam] here?
**A.** Sparingly

**Q.** With `CN1CCCC(n2nc(Cc3ccc(Cl)cc3)c3ccccc3c2=O)CC1` (stereo not drawn) [Azelastine] as the compound, how does the “Solubility In Water” value read?
**A.** Insoluble

**Q.** Which “Solubility In Water” value does the source give for `Cc1cccc(Nc2ccccc2C(=O)O)c1C` [Mefenamic acid] here?
**A.** Slightly

**Q.** With `COc1ccc2[nH]c([S+]([O-])Cc3ncc(C)c(OC)c3C)nc2c1` (stereo not drawn) [Omeprazole] as the compound, how does the “Solubility In Water” value read?
**A.** Slightly

**Q.** For `CC(C(=O)O)c1ccc(-c2ccccc2)c(F)c1` (stereo not drawn) [Flurbiprofen], which “Solubility In Water” value is on record?
**A.** Slightly

**Q.** For `OCCN(CCO)c1nc(N2CCCCC2)c2nc(N(CCO)CCO)nc(N3CCCCC3)c2n1` [Dipyridamole], which “Solubility In Water” value is on record?
**A.** Slightly

**Q.** For `COC(=O)C1=C(C)NC(C)=C(C(=O)OC(C)C)C1c1cccc2nonc12` (stereo not drawn) [Isradipine], which “Solubility In Water” value is on record?
**A.** Insoluble

**Q.** For `Cc1c(OCC(F)(F)F)ccnc1C[S+]([O-])c1nc2ccccc2[nH]1` (stereo not drawn) [Lansoprazole], which “Solubility In Water” value is on record?
**A.** Insoluble

**Q.** With `COc1ccc2cc(CCC(C)=O)ccc2c1` [Nabumetone] as the compound, how does the “Solubility In Water” value read?
**A.** Insoluble

**Q.** Which “Solubility In Water” value does the source give for `C[C@@](Cc1ccc(O)c(O)c1)(NN)C(=O)O` [Carbidopa] here?
**A.** Slightly

**Q.** For `CC(=O)N1CCN(c2ccc(OCC3COC(Cn4ccnc4)(c4ccc(Cl)cc4Cl)O3)cc2)CC1` (stereo not drawn) [Ketoconazole], which “Solubility In Water” value is on record?
**A.** Insoluble

**Q.** With `NC(=O)N1c2ccccc2C=Cc2ccccc21` [Carbamazepine] as the compound, how does the “Solubility In Water” value read?
**A.** Insoluble

**Q.** For `CC1=C(/C=C/C(C)=C/C=C/C(C)=C\C(=O)O)C(C)(C)CCC1` [Isotretinoin], which “Solubility In Water” value is on record?
**A.** Insoluble

**Q.** With `CC(CCc1ccc(O)cc1)NCCc1ccc(O)c(O)c1` (stereo not drawn) [Dobutamine] as the compound, how does the “Solubility In Water” value read?
**A.** Sparingly

**Q.** Which “Solubility In Water” value does the source give for `O=C1NC(=O)C(c2ccccc2)(c2ccccc2)N1` [Phenytoin] here?
**A.** Insoluble

same assay, conditions: Table 2, Poorly-Soluble Drugs with Low Bioavailability; descriptive term

**Q.** With `CC[C@H](C)C(=O)O[C@H]1C[C@@H](C)C=C2C=C[C@H](C)[C@H](CC[C@@H]3C[C@@H](O)CC(=O)O3)[C@H]21` [Lovastatin] as the compound, how does the “Solubility In Water” value read?
**A.** Insoluble

**Q.** Which “Solubility In Water” value does the source give for `CC(=O)S[C@@H]1CC2=CC(=O)CC[C@]2(C)[C@H]2CC[C@@]3(C)[C@@H](CC[C@@]34CCC(=O)O4)[C@H]12` [Spironolactone] here?
**A.** Insoluble

**Q.** With `COC(=O)C1=C(C)NC(C)=C(C(=O)OC(C)C)C1c1cccc2nonc12` (stereo not drawn) [Isradipine] as the compound, how does the “Solubility In Water” value read?
**A.** Insoluble

**Q.** For `COc1ccc2cc(CCC(C)=O)ccc2c1` [Nabumetone], which “Solubility In Water” value is on record?
**A.** Insoluble

settings: Table 2; figure in brackets after 'Low'

**Q.** With `O=[N+]([O-])O[C@H]1CO[C@H]2[C@@H]1OC[C@H]2O[N+](=O)[O-]` [Isosorbide dinitrate] as the compound, how does the Bioavailability read?
**A.** Low (20-35%)

**Q.** Which Bioavailability does the source give for `CC(=O)S[C@@H]1CC2=CC(=O)CC[C@]2(C)[C@H]2CC[C@@]3(C)[C@@H](CC[C@@]34CCC(=O)O4)[C@H]12` [Spironolactone] here?
**A.** Low (25%)

**Q.** For `COc1cc(N)c(Cl)cc1C(=O)NC1CCN(CCCOc2ccc(F)cc2)CC1OC` (stereo not drawn) [Cisapride], which Bioavailability is on record?
**A.** Low (35-40%)

**Q.** For `COc1ccc2cc(CCC(C)=O)ccc2c1` [Nabumetone], which Bioavailability is on record?
**A.** Low (35%)

**Q.** For `CCCC1O[C@@H]2C[C@H]3[C@@H]4CCC5=CC(=O)C=C[C@]5(C)[C@H]4[C@@H](O)C[C@]3(C)[C@]2(C(=O)CO)O1` (stereo partly drawn) [Budesonide], which Bioavailability is on record?
**A.** Low (~15%)

same assay, conditions: in vivo

**Q.** With `CN[C@H]1CC[C@@H](c2ccc(Cl)c(Cl)c2)c2ccccc21` [Sertraline] as the compound, how does the Bioavailability read?
**A.** Low (<44%)

**Q.** For `CN1CCC[C@@H]1CCO[C@](C)(c1ccccc1)c1ccc(Cl)cc1` [Clemastine fumarate], which Bioavailability is on record?
**A.** Low (~39%)

**Q.** Which Bioavailability does the source give for `NC(N)=Nc1nc(CSCCC(N)=NS(N)(=O)=O)cs1` [Famotidine] here?
**A.** Low (39-50%)

**Q.** Which Bioavailability does the source give for `OC(CCN1CCCCC1)(c1ccccc1)C1CC2C=CC1C2` (stereo not drawn) [Biperiden] here?
**A.** Low (29-33%)

**Q.** Which Bioavailability does the source give for `Nc1ccc(O)c(C(=O)O)c1` [Mesalamine] here?
**A.** Low (~20%)

**Q.** For `CC1CC(OC(=O)C(O)c2ccccc2)CC(C)(C)C1` (stereo not drawn) [Cyclandelate], which Bioavailability is on record?
**A.** Low

**Q.** For `CC(=O)OC[C@H]1O[C@@H]([S-])[C@H](OC(C)=O)[C@@H](OC(C)=O)[C@@H]1OC(C)=O.CCP(CC)CC.[Au+]` [Auranofin], which Bioavailability is on record?
**A.** Low (15-25%)

**Q.** Which Bioavailability does the source give for `CCCCCc1cc(O)c2c(c1)OC(C)(C)[C@@H]1CCC(C)=C[C@@H]21` [Dronabinol] here?
**A.** Low 10-20%)

**Q.** For `COC(=O)C1=C(C)NC(C)=C(C(=O)OC(C)C)C1c1cccc2nonc12` (stereo not drawn) [Isradipine], which Bioavailability is on record?
**A.** Low (15-24%)

**Q.** Which Bioavailability does the source give for `COc1ccc(CCN2CCC(Nc3nc4ccccc4n3Cc3ccc(F)cc3)CC2)cc1` [Astemizole] here?
**A.** Low-moderate

**Q.** Which Bioavailability does the source give for `CCOC(=O)C1=C(C)NC(C)=C(C(=O)OC)C1c1cccc(Cl)c1Cl` (stereo not drawn) [Felodipine] here?
**A.** Low (15%)

**Q.** With `OCCN1CCN(CCCN2c3ccccc3Sc3ccc(Cl)cc32)CC1` [Perphenazine] as the compound, how does the Bioavailability read?
**A.** Low

**Q.** Which Bioavailability does the source give for `C#C[C@]1(O)CC[C@H]2[C@@H]3CCC4=Cc5oncc5C[C@]4(C)[C@H]3CC[C@@]21C` [Danazol] here?
**A.** Low

**Q.** With `OCCN1CCN(CCCN2c3ccccc3Sc3ccc(C(F)(F)F)cc32)CC1` [Fluphenazine] as the compound, how does the Bioavailability read?
**A.** Low (2-3%)

**Q.** With `C[C@]12CC[C@H]3[C@@H](CCC4=CC(=O)CC[C@@]43C)[C@@H]1CC[C@@H]2O` [Testosterone] as the compound, how does the Bioavailability read?
**A.** Low

**Q.** For `CCn1cc(C(=O)O)c(=O)c2cc(F)c(N3CCNCC3)cc21` [Norfloxacin], which Bioavailability is on record?
**A.** Low (30-40%)
